# Experimental data taken from a melting point compilation (Tetko et al.; mined from patent text by program, amines drawn as free bases though some values may be those of a salt).
row,SMILES,melting point [°C]
1,CC(=O)Nc1cc(I)ccc1C(=O)O,229 to 232
2,CCCC[C@H](NC(=O)[C@H](CC(C)C)NC(=O)c1cc2cccc(F)c2o1)C(=O)CSCc1ccco1,102 to 103
3,CN1CCC(c2c[nH]c3ccc(Br)cc23)C1 (stereo unspecified),152 to 154
4,CC(=S)NCC1CN(c2ccc3c(c2)CC(C(C)(C)C)N3C=O)C(=O)O1 (stereo unspecified),219 to 221
5,COC1OCC[C@@H]1NC(=O)[C@H](CC(C)C)NC(=O)OCc1ccccc1 (stereo partly specified),112 to 113
6,COC(=O)c1cccc(N)c1CS(=O)(=O)NC(C)(C)C,123 to 125
7,COc1ccc(C)c(O)c1,34 to 35
8,CC1(C)Oc2ccc(Cl)cc2[C@@H](N2CCCC2=O)[C@@H]1O (relative stereo),202 to 203
9,COCCn1nc2c(N)nc3ccccc3c2c1CC(C)(C)C(N)=O,225 to 226
10,CCCCn1c(=O)c(NC(=O)Nc2c(C(C)C)cccc2C(C)C)c(-c2cccc(OCCCCl)c2)c2cccnc21,138 to 140
11,COc1nc2cc(Br)c3c(c2nc1OC)CCN(C)C3,162
12,CC(CCC(=O)NC(C)(C)CO)C1CCC2C3C(=O)CC4CC(O)CCC4(C)C3CC(O)C12C (stereo unspecified),229 to 231
13,CN1CCN(c2c(Cl)cc3c(=O)c(C(=O)O)cn(C4CC4)c3c2Cl)CC1,> 300
14,COc1ccc(C(=O)N[C@H](C(=O)N2CCC[C@H]2C(=O)N[C@@H](C(C)C)[C@@H](O)C(F)(F)F)C(C)C)cc1,168 to 170
15,CC(C)(C)OC(=O)N1C[C@H](Oc2nccc(NC(=O)c3ccccc3)n2)C[C@@H]1C(=O)OC(c1ccccc1)c1ccccc1,145 to 147
16,CCOC(=O)c1ncc2[nH]c3ccc(P(=O)(CC)CC)cc3c2n1,195 to 197
17,C=CCN1N=C(c2ccc3c(c2)N(S(C)(=O)=O)CCO3)CCC1=O,153 to 155
18,Cc1c(Cl)ccc(S(=O)(=O)Cl)c1C#N,69 to 72
19,CCCCCCCCCCCCCCCCCCOc1cccc2c(O)cccc12,90 to 92
20,O=C1CCCN(C(=O)c2ccc([N+](=O)[O-])cc2Cl)c2ccsc21,180 to 185
21,O=[N+]([O-])c1cc(C(F)(F)F)c(Cl)c([N+](=O)[O-])c1Nc1ncc(Cl)cc1Cl,64 to 65

row,SMILES,melting point [°C]
1,COC(=O)/C=C/c1ccc(/C=C/c2csc(NC(C)=O)n2)s1,200 to 202
2,CC(C)(C)[Si](C)(C)C(F)(F)F,52 to 54
3,CCOC(=O)c1csc(N2CCSCC2)n1,99 to 100
4,Cc1c2n(c(=O)[nH]c1=O)CCCS2,196 to 198
5,CNC(=O)C(NC(=O)Nc1n[nH]c(=S)s1)c1ccccc1 (stereo unspecified),240 to 241
6,CC(C)(C)N1C(O)c2cccc(Cl)c2S1(=O)=O (stereo unspecified),139 to 141
7,COc1cc2c(Nc3ccc(Sc4nccn4C)c(Cl)c3)c(C#N)cnc2cc1N1CCN(CCn2ccnc2)CC1,251 to 253
8,COc1ccc2c(c1)c1c(n2CCC(=O)NN)CCN(C)C1,126 to 128
9,COC(=O)[C@]1(O)Cc2c(OC)ccc(OC)c2C2(C1)SCCS2,115 to 117
10,CCS(=O)(=O)c1ccc(-c2coc3ccc(-c4nnc(C)o4)cc23)c(Cl)c1,180 to 181
11,COc1ccc(C(=O)N2c3ccccc3C(n3c4ccccc4c4ccccc43)CC2COCc2ccccc2)cc1OC (stereo unspecified),203 to 204
12,CN=Cc1ccc2c(Br)c(OC)ccc2c1,105 to 107
13,CCC1=C(C)C(=O)NC1=CBr,250 to 251
14,CCOC(=O)NC=Cc1ccc(OCC(O)CNC(C)(C)C)cc1 (stereo unspecified),99 to 100
15,CC(C)(C)OC(=O)N1CCCN(c2cc[nH]c(=S)c2C#N)CC1,203 to 205
16,CCOC(=O)OCC(I)=C(I)I,49 to 50
17,Cn1c(=O)n(O)c(=O)c2cc(F)c(F)cc21,239 to 241
18,CCCCCCCCCCCCCCCCCCOc1cc(N(CC(=O)O)CC(=O)O)cc(S(=O)CC(=O)O)c1 (stereo unspecified),138 to 140
19,CCC(=O)OCOC(=O)Nc1ccc(Cl)cc1,90 to 91
20,Cn1c(=O)n(CCCN2CCC3(CC2)C(=O)NCN3c2ccccc2)c2ccccc21,164

# More lines, now with the values ahead:
row,melting point [°C],SMILES
1,85,COc1ccc(Cc2nc3c(cnn3C(CCCc3ccccc3)C(C)O)c(=O)[nH]2)cc1OC (stereo unspecified)
2,135 to 136,CC(C)(C)[Si](C)(C)Oc1ccc(NC(=O)CN2CCC(O)(Cc3ccc(Cl)cc3)CC2)cc1
3,150 to 152,CSc1cc(C(C)=O)ccc1OCCCN1CCC(c2noc3cc(F)ccc23)CC1
4,129 to 130,CCCCOc1ccccc1C=CC(=O)c1ccc(OC)c(OC)c1OC
5,120 to 122,Cc1cn(C2OC(COC(=O)c3ccccc3)C(OC(=O)c3ccccc3)C2F)c(=O)[nH]c1=O (stereo unspecified)
6,60 to 67,N#CCCn1cccc1-c1ccc2cnc(Nc3cccc(N4CCCC4=O)c3)nn12
7,136 to 137,Cc1oc(-c2ccccc2)nc1CC=Cc1ccc(CCCC2OC(=O)NC2=O)cc1 (stereo unspecified)
8,142,CC[C@H](CC(=O)NC(=O)OC)Nc1ccc(C(F)(F)F)cc1
9,183 to 185,Cn1c(COc2ccc(CC3SC(=O)NC3=O)cc2)cc2cccnc21 (stereo unspecified)
10,> 260,COc1cc(OC)c2[nH]c3c(C(=O)Nc4ccc(CCN(C)Cc5ccc(OC)c(OC)c5)cc4)cccc3c(=O)c2c1
11,> 230,COc1ccc2c(c1)c(CC1=CC(=O)N=N1)c(C)n2C(=O)c1ccc(Cl)cc1
12,97.5 to 99,CCCCCS(=O)(=O)NC(=O)OCCCc1ccc(OCCOC)cc1Oc1ncc(C(F)(F)F)cc1Cl
13,87.6 to 89,CC1=C(c2ccccc2)C(=O)N(C(C)(C)C(O)c2cc(F)cc(F)c2)CO1 (stereo unspecified)
14,212 to 213,O=C1N[C@H](Cc2ccc(C(F)(F)F)cc2)[C@H](c2ccncc2)O1 (racemic)
15,102 to 103,CC(C)(C)c1ccc2c(c1)C(CO)c1cc(C(C)(C)C)ccc1-2
16,160 to 162,CCOc1cccc2cc(S(=O)(=O)Nc3ccc(F)c(N)c3)c(=O)oc12
17,181 to 182,COc1cc2cc3c(ccc4ccccc43)nc2cc1OC
18,115,O=C(O)c1ccc(CNC(=O)C2Cc3ccccc3N2S(=O)(=O)c2ccc(-c3ccc(F)cc3F)cc2)cc1 (stereo unspecified)
19,154 to 158,O=C(O)C1Oc2ccccc2C2(CC2)c2cccc(Cl)c2O1 (stereo unspecified)
20,46,COC(=N)c1cc(Oc2ccc(C(F)(F)F)cc2Cl)ccc1[N+](=O)[O-]
21,82 to 83,CCN(CC)CCCNC(=O)Cn1ncc(-c2ccc(F)cc2)c1-c1ccccc1
22,242 to 244,COc1cc(C(=O)O)cc(CCc2ccccc2)c1C(=O)O
23,205 to 207,CC1Cc2c(c3cccnc3n(-c3cccc(C(F)(F)F)c3)c2=O)O1 (stereo unspecified)
24,308 to 311,O=S1(=O)c2ccccc2N(c2ccc(O)cc2)c2ccccc21
25,202,CCC1CC(=O)N(CCc2ccc(NC(=O)c3cnccn3)cc2)N=C1c1ccc(OC)c(OC)c1 (stereo unspecified)
26,145 to 146,Cc1oc(-c2ccccc2)nc1COc1ccccc1COc1ccccc1CC(=O)O
27,180 to 181,CSc1ccc(-c2nc(SC)c(C#N)c(=O)n2-c2ccc(C(C)C)cc2)cc1
28,154 to 160,COc1ccc(C(=CC(=O)N2CCOCC2)c2ccc(Cl)nc2)cc1OC

row,melting point [°C],SMILES
1,117 to 118,CC(=O)NCCc1ccc(CN2CCN(c3ccccc3)CC2)cc1
2,233 to 236,CSC1=NC(=O)/C(=C/c2ccccc2Nc2c(Cl)ccc(C)c2Cl)S1
3,104 to 105,O=c1c2ccccc2cnn1Cc1ccccc1
4,245 to 247,CC(C)(C)c1ccc(Oc2nc(Nc3cccc(C(=O)O)c3)nc(Oc3ccccc3)n2)cc1
5,193 to 195,Cc1ccc(NC(=O)N(C)Cc2cccc3c2C(=O)N(C2CCC(=O)NC2=O)C3=O)cc1Cl (stereo unspecified)
6,110 to 112,COc1ccc(C(=O)NNC(=O)c2occ(-c3ccccc3)c2-c2ccccc2)cc1F
7,157,CC(C)N(C1CCCC1)S(=O)(=O)N[C@@H](Cc1ccc(NC(=O)c2c(Cl)cncc2Cl)cc1)C(=O)O
8,136 to 137,O=[N+]([O-])c1ccc(/C=C/c2c(F)cccc2F)cc1
9,203 to 204,COC1OCC[C@@H]1NC(=O)[C@H](Cc1ccccc1)NC(=O)CNC(=O)COc1ccc2c(c1)Nc1ccccc1S2 (stereo partly specified)
10,90 to 93,Fc1ccc(C(c2ccc(F)cc2)N2CCN(CCCSc3ncnc4nc[nH]c34)CC2)cc1
11,101 to 102,CS(=O)(=O)Nc1ccc([C@@H]2CCC(=O)O2)cc1
12,207 to 212,CN1C(=O)CC[C@]2(C)c3ccc(-c4nc5ccccc5s4)cc3CC[C@@H]12
13,151,COC(=O)C(c1ccccc1)C1CCN(c2ccc(NC(=O)c3ccccc3-c3ccc(C(F)(F)F)cc3)cc2)CC1 (stereo unspecified)
14,182 to 185,Fc1nccn1C(c1ccccc1)(c1ccccc1)c1ccccc1
15,128 to 130,COc1cccc([C@H]2O[C@H](CC(=O)NC(C)CC(=O)O)C(=O)N(CC(C)(C)C)c3ccc(Cl)cc32)c1OC (stereo partly specified)
16,253 to 256,O=C(Nc1cccc(Nc2ccc3c(c2)NC(=O)C3=Cc2ccc[nH]2)c1)Nc1cccc(C(F)(F)F)c1
17,93 to 95,COC(=O)C=Cc1ccc(OCCN(C)c2ccccn2)cc1
18,97 to 100,CC1(C)Cc2c(F)cccc2C(c2cnc3ccccc3c2)=N1
19,125 to 126,CNc1cccc(S(=O)(=O)c2ccc(N)cc2)c1
20,168,O=[N+]([O-])c1ccc(N2CCN(CC(O)(Cn3cncn3)c3ccc(Cl)cc3Cl)CC2)cc1 (stereo unspecified)
21,232 to 233,CN1CCN(c2cccc3nc4n(c(=O)c23)-c2ccc(F)cc2C4=O)CC1
22,148 to 149,O=C(NCCO)c1cccc(-c2cccc3c2CN(Cc2cccc(C(F)(F)F)c2)C3=O)c1
23,254,N#CC1=C(c2cccs2)Nc2n[nH]cc2C1c1cccc2nsnc12 (stereo unspecified)
24,139,O=C(Nc1cc2ccccc2cn1)c1nccnc1NCc1ccncc1
25,101 to 102,Sc1nc2cc3ccccc3cc2o1
26,132 to 134,CCc1c(-c2ccc(O)cc2)c2cc(COCCN3CCCCC3)c3cccc1n32
27,137 to 139,CC(C)(C)C1CC(=Cc2ccccc2)C(=O)C(=Cc2ccccc2)C1 (stereo unspecified)
